Results as given in patent US20240254547A1, “HIGHLY ACCURATE […]” (KAO CORPORATION, priority 2018, published 2024).

Tested on: gpt gene
Experiment: gpt-assay, gene mutation frequency (OECD TG488)
Format: in vivo, mouse (C57BL/6JJmsSlc-Tg (gpt delta))
Details: bone marrow
Method: Male TG mice which were 7 to 9 weeks old at initiation of administration were used. ENU (produced by Toronto Research Chemicals, Inc.) was dissolved in saline to a concentration of 15.0 mg/mL. By using a plastic syringe and a 25 G injection needle, […] was intraperitoneally administered to the mice once per day (ENU 150 mg/kg/day) for 5 days (ENU group). Saline was administered to a control group. Seven days after the final administration, the animals were each euthanized to resect the femur, and genomic DNA was extracted from the bone marrow by using a REcoverEase DNA Isolation Kit (produced by Agilent Technologies) in accordance with the recommended protocol. The double-stranded DNA concentration of the resulting DNA was measured by using a Qubit3.0 Fluorometer (produced by Thermo Fisher Scientific) with a Qubit™ dsDNA BR Assay Kit attached thereto.
DNA was extracted from the bone marrow of each of the mice obtained in 1) by using phenol/chloroform. For the extract DNA, gene mutation frequency was calculated by using the gpt gene introduced into each TG mouse in accordance with OECD Guidelines for the Testing of Chemicals 488 (OECD TG488) (gpt-assay). […] From the number of colonies formed on the selective medium (mutant colonies) and the number of colonies formed on the medium for titer determination (total colonies), mutation frequency (*10^−6) was calculated. […]

SMILES: CCN(N=O)C(N)=O [ENU, ethylnitrosourea]
- Mean Mutant Frequency (gpt-assay) (ENU 150 mg/kg/day intraperitoneally for 5 days, n=4): 126.33 *10^−6
- Gene mutation frequency (gpt-assay) versus control group (ENU 150 mg/kg/day): Significant increase
